Test results as given in patent US20010025105A1, “Certain substituted 1-aryl-3-piperazine-1'-yl propanones” (Molecular Geriatarics Corporation, priority 1997, published 2001).
Structures can show the parent of a compound that is named as a salt.

Experiments:
[1] = test system: paired helical filament epitopes in MSN1a cells; assay: Western blot of PHF-1 immunoreactivity in lysates of MSN1a cells; type: cell-based, human; details: 100 μM chlorpromazine, 2 hours at 37° C.
Method: These compounds are effective at micromolar concentrations, with increased potency being evident when cells are treated prior to the addition of okadaic acid. The effective concentrations appear to be in the range at which these drugs are present in the brain following chronic treatment of psychiatric patients (Svendsen, C N, Psychopharnacology, 90, 316-321, 1986). […] The cells were isolated by centrifugation, boiled for 10 minutes and […] protein from the resulting heat stable supernatants were loaded per lane on an SDS-PAGE gel. The gel was electrophoretically transferred to nitrocellulose membrane and then immnunostained with PHF-1. […] The use of the MSN1a cell culture model for screening of novel compounds for therapeutic activity in AD is, therefore, quite warranted.

[2] = test system: PHF epitope levels in human brain tissue; assay: Retrospective study of autopsy brain tissue of chronically treated patients, ALZ-EIA method; type: in vivo; details: frontal (Broadman area 10) and temporal (Broadman area 38) regions, FIGS. 4A and 4B
Method: Frontal and cortical brain tissue specimens obtained at autopsy from patients chronically treated with chlorpromazine were analyzed using the ALZ-EIA method previously described (Ghanbari, H A, et al, JAMA, 263, 2907, 1990). […] The brain tissue (post-mortem) from approximately the same number of (age matched) normal controls and Alzheimer's Disease patients were also analyzed and are presented in these figures as negative and positive controls (for normal and AD, respectively). […] Bick, K L. Raven Press, New York, 1994).

[3] = test system: PHF epitopes in human brain tissue; assay: Retrospective study of autopsy brain tissue of chronically treated patients, direct ELISA using TG3 antibody; type: in vivo; details: N 51, sum of absorbance readings for 8 dilutions
Excerpt: In a subsequent study, 51 additional patients were identified and the analysis was repeated as above using the TG3 antibody in an ELISA format.

[4] = test system: TG3 immunoreactivity in OKA treated MSN1a cells; assay: MSN1a cell culture model, ELISA with TG3 antibody, okadaic acid treated cells; type: cell-based, human; details: Homo sapiens, 1 μM OKA, 2 hrs at 37° C., read-out: IC50 for inhibition of TG3 immunoreactivity in OKA treated MSN1a cells
Method: This assay can thus be used to determine whether a drug is capable of preventing or intervening in AD by attenuating the production of abnormally phosphorylated paired helical filament epitopes associated with AD. To determine whether a drug is capable of preventing or intervening in AD activity, the MSN1a cells containing tau and associated proteins are treated with OKA capable of greatly increasing immunoreactivity of the MSN1a cells with AD specific monoclonal antibodies. Then, either prior to or concomitantly with OKA treatment, a compound of the present invention is added to the culture. If the compound prevents the induction of the AD epitopes in the MSN1a cells treated with OKA, then it is said to have anti-AD activity. If the AD-specific antibodies are highly reactive with the neuroblastoma cells following OKA treatment in the presence of compound, then the compound is said to be ineffectual against AD.
The MSN1a human neuroblastoma line was subcloned from a population of MSN cells obtained from the laboratory of Dr. Peter Davies (Albert Einstein College of Medicine, New York, N.Y.). Cells were grown and maintained in flasks in RPMI 1640 medium, supplemented with 15% fetal calf serum, 100 U/ml penicillin, 100 U/ml Streptomycin, 0.5 ug/ml fungizone under 7.5% CO2 at 37° C.
Stock solutions of drugs were prepared by dissolving the anhydrous powders to final concentrations of either 10 or 20 mM in 50% aqueous or 100% dimethyl sulfoxide (DMSO), respectively. Working solutions of drugs were prepared by dilution of the stock solutions with Kreb's Ringer in Hepes buffer (KRH) (128 mM NaCl, 5 mM KCl, 2.5 mM CaCl2 1.2 mM MgSO4, 1 mM Na2HPO4, 10 mM dextrose, 20 mM Hepes, pH 7.4). OKA is maintained as a 1 mM stock solution in DMSO prior to dilution to 4 μM in KRH.
MSN cells grown in 225 cm^2 flasks are removed from the incubator, their medium decanted and replaced with 50 ml pre-warmed KRH. The cells are harvested by scraping prior to sedimentation at 1000 rpm for 5 min. The supernatants are discarded and the cell pellets are resuspended, the cells counted and diluted to a density of 2×10^4 cells/[…]. The cells are then plated in a 96 well plate at 50 μl/well and 25 μl of 4 μM OKA and 25 μl of drug are then added to the appropriate wells; the entire 96 well plate is then incubated for 2 hrs at 37° C. Depending on the dilution of drug added, this yields individual wells containing 1 μM OKA, 0-64 μM drug and 2×10^4 cells in 0.26% DMSO in KRH. The incubation is terminated by the addition of 20 μl of 6X extraction buffer and immediate freezing at −80° C. for at least one hr. The 6X extraction buffer contains: 25 mM Tris-HCl, pH 7.6, 150 mM NaCl, 5 mM EDTA, 24 mM β-glycerol phosphate, 10 μg/ml APMSF (4-amidinophenylmethane-sulfonyl flouride), and 2.5 μg/ml each of leupeptin, aprotinin, and pepstatin. The plates are thawed in a 37° C. water bath and 20 μl of cell lysate is added to a replica well in an ELISA plate that already contains 80 μl of coating buffer (15 mM Na2CO3 and 35 mM NaHCO3, pH 9.6). The plates are allowed to coat overnight at 4° C. The plates are washed four times with deionized water and then blocked for 30 min at 37° C. with 200 μl/well pre-warmed 1% bovine serum albumin in 10 mM Tris-HCl, pH 7.4, 150 mM NaCl, 3 mM NaN3 (BSA-TBS). After the blocking solution is removed, 100 μl/well of an appropriate dilution of pre-warmed primary antibody (eg., TG3 or PHF-1) in BSA-TBS is added and incubated at 37° C. for 30 min. Incubation is terninated by washing four times in deionized water at which time 100 μl of an appropriate dilution of pre-warmed secondary antibody (conjugated to alkaline phosphatase) in BSA-TBS is added to each well in the ELISA plate. Incubation is performed for 30 min at 37° C. followed by washing 4 times with deionized water. […] of prewarmed chromogenic substrate (1 mg/mnl p-nitrophenyl phosphate in 10% diethanolamine, 3 mM NaN3, 0.5 mM MgCl2, pH 9.8) is added and the plate incubated for 30 min at 37° C. […]

[5] = test system: Staphylococcus aureus SRI 1323; assay: Agar disc diffusion assay; type: cell-based; details: 240 ug/disc, about 24 hr at 37° C.; for zone of inhibition at 240 µg/disc: Staphylococcus aureus, SRI1323, read-out: Diameter of the zone of inhibition, S. aureus
Method: (§1) The activity of the compounds is determined using the following assay. The compound is dissolved in DMSO at a concentration of 6 mg/ml and then diluted with water to a final concentration of 3 mg/ml in 50% DMSO (% DMSO was shown not to be inhibitory to the test organisms). An aliquot (0.08 ml) of each drug solution was transferred to filter paper discs (12.7 mm diameter, Scmeicherand Schuell) for use in the agar diffusion assay. The concentration of each drug on the filter paper disc was 240 ug/disc. The test organisms included the following: Gram-positive aerobes (Staphylococcus aureus SRI 1323, Streptococcus pneumoniae SRI 1167); Gram-negative aerobe (Proteus vulgaris SRI 180); and the yeast Candida albicans SRI 523. An agar disc diffusion assay was used to evaluate the antimicrobial activity of the test compounds. Briefly, cultures were prepared from 16-20 hr agar slant cultures by inoculating in physiological saline to a turbidity equivalent to a #0.5 McFarland turbidity standard for the bacteria and a #3 McFarland standard for C. albicans. The surface of Mueller-Hinton agar (15×100 mm plates, mm) were evenly inoculated with each standardized culture using a cotton swab. Filter paper discs containing the drug concentration listed above were then placed on the inoculated agar plates along with a disc containing the solvent used to dissolve each drug. The plates were incubated at 37° C. for about 24 hr and the diameters of the zones of inhibition measured with a vernier caliper. Positive control drugs consisted of streptomycin for use with the bacterial strains and 5-fluorocytosine for use with C. albicans. The positive control drugs were assayed as described above for the compounds of the present invention using the same concentration.

[6] = test system: Streptococcus pneumoniae SRI 1167; assay: Agar disc diffusion assay; type: cell-based; details: 240 ug/disc, about 24 hr at 37° C., + = zone too large to measure; for zone of inhibition at 240 µg/disc: Streptococcus pneumoniae, SRI1167, read-out: Diameter of the zone of inhibition, S. pneumoniae
Method: as §1

Candida albicans SRI 523 = assay: Agar disc diffusion assay; type: cell-based; details: 240 ug/disc, about 24 hr at 37° C.; for zone of inhibition at 240 µg/disc: Candida albicans, SRI523, read-out: Diameter of the zone of inhibition, C. albicans
Method: as §1

Proteus vulgaris SRI 180 = assay: Agar disc diffusion assay; type: cell-based; details: 240 ug/disc, about 24 hr at 37° C., 0 = no measurable zone; for zone of inhibition at 240 µg/disc: Proteus vulgaris, SRI180, read-out: Diameter of the zone of inhibition, P. vulgaris
Method: as §1

[7] = test system: microtubule cytoskeleton of human CG neuroblastoma cells; assay: Antimicrotubule activity, tubulin immunofluorescence microscopy; type: cell-based; details: 2 hr at 37° C., read-out: Concentration where microtubule destabilization occurs
Method: The compounds of the invention according to formula I are effective in destabilizing microtubules, thus are useful in treating certain neoplastic diseases. Indirect immunofluorescence microscopy using the monoclonal antibodies to tubulin is used herein to determine the activity of the compounds of this invention in promoting depolymerization of the microtubule cytoskeleton in cultured cells. The following assay was employed.
Cultured human CG neuroblastoma cells were seeded 1:3 from confluent cultures onto sterile 11×22 mm coverslips in 6 well tissue culture plates 16 hr prior to treatment. The following day, the tissue culture medium is removed and the cells are exposed to various concentrations of compounds of this invention in Krebs Ringer Hepes (KRH) buffer containing a final concentration of 0.5% DMSO as carrier. Incubations were performed at 37° C. in a humidified 5% CO2 atmosphere for 2 hr. After incubation, the cells were fixed in 3% TEM grade formaldehyde in PBS for 45 min at room temperature.
To visualize the effects of the compounds of the invention on the microtubule cytoskeleton, the cells were processed for tubulin immunofluorescence. Briefly, the cells were permeabilized in 0.5% Triton-X 100 in PBS for 5 min. The cells were washed 2× with PBS and aldehydes reduced using 0.5 mg/ml NaBH4 in PBS for 5 min. Subsequently, the cells were blocked for 10 min in 1.5% BSA and 1.5% nonfat dry milk in PBS (blocking solution, BS) for 10 min. The cells were then incubated for 30 min at 37° C. with the monoclonal antibody Tu27B which recognizes b-tubulin (dilution 1:20 in BS). Subsequently, the cells were washed 2× in PBS and once in BS. The cells were then incubated for 30 min at 37° C. with sheep antimouse IgG conjugated to FITC. After incubation, the cells were washed 2× in PBS and once in BS and incubated for 30 min at 37° C. with rabbit antisheep IgG conjugated to FITC. The cells were rinsed in PBS, counterstained with Hoechst 33285 in PBS (1 μg/ml), and rinsed in PBS. The coverslips were mounted in 9:1 glycerol:PBS containing 1 mg/ml p-phenylenediamine and sealed with nail polish.
The cells were viewed using a Jenalumar epifluorescence microscope equipped with the proper filters for Fluorescein Isothiocyanate (FITC) excitation and emission. Lack of effect of a compound is evidenced by the presence of an intact microtubule network in interphase cells, or a mitotic spindle in dividing cells. Antineoplastic compounds of the invention at effective doses result in the disappearance of microtubules in both interphase and mitotic cells.

In the case of CN(C)CCCN1c2ccccc2Sc2ccc(Cl)cc21 [Chlorpromazine, chlorpromazine], the “production of paired helical filament epitopes (PHF-1 immunoreactivity, western blot)” value ([1]; FIG. 3) is reported as “markedly inhibit the expression of PHF epitopes”, the “production of paired helical filament epitopes (PHF-1 immunoreactivity, western blot)” value ([1]; FIG. 3, listed as CPZ) is reported as “greatly decreased the production of paired helical filament epitopes” and the “PHF epitope levels (ALZ-EIA)” value [2] is reported as “low PHF epitope levels similar to normal controls”. The “SIGNAL ± SEM Frontal” value ([3]; post-mortem frontal brain tissue) was 0.12 ± 0.11, the “SIGNAL ± SEM Temporal” value ([3]; post-mortem temporal brain tissue) was 0.16 ± 0.11 and the IC50 [4] was about 70 µM.

With Cl.Cl.O=C(CCN1CCN(Cc2ccccc2)CC1)c1ccc([N+](=O)[O-])cc1 [Example 5] the “Diameter of the zone of inhibition, S. aureus” value [5] was 22.8 mm, the “Diameter of the zone of inhibition, S. pneumoniae” value [6] was 29.9 mm and the “Diameter of the zone of inhibition, C. albicans” value (Candida albicans SRI 523) was 17.6 mm. For the same compound, the “Diameter of the zone of inhibition, P. vulgaris” value (Proteus vulgaris SRI 180) was 17.3 mm and the minimal effective concentration [7] was 4 µM.

In the case of O=C(CCN1CCN(Cc2ccccc2)CC1)c1nccs1 [Example 76, 1-(2-Thiazolyl)-3-(4′-benzyl-1′-piperazinyl)-1-propanone dihydrochloride], the zone of inhibition at 240 µg/disc [5] is reported as 19.3 mm, the zone of inhibition at 240 µg/disc [6] is reported as 35.5 mm and the zone of inhibition at 240 µg/disc (Candida albicans SRI 523) is reported as 20.9 mm. For the same compound, the zone of inhibition at 240 µg/disc (Proteus vulgaris SRI 180) was 20.5 mm and the IC50 [4] was 10.5 µM.

With O=C(CCN1CCN(C(=O)c2sc3ccccc3c2Cl)CC1)c1ccc(Br)s1 [Example 86, 1-(5″-Bromo-2″-thienyl)-3-[4′-(3′″-chlorobenzo[b]-2′″-thienoyl)-1′-piperazinyl]-1-propanone dihydrochloride] the zone of inhibition at 240 µg/disc [5] was 16.2 mm, the zone of inhibition at 240 µg/disc [6] was 19.3 mm and the zone of inhibition at 240 µg/disc (Candida albicans SRI 523) was 17.3 mm. The zone of inhibition at 240 µg/disc (Proteus vulgaris SRI 180) was 13.9 mm.
